Source: publication PMC7986777 (Chemistry (Weinheim an Der Bergstrasse, Germany), 2021)

Key:
Assay in all cases: fluorescent cephalosporin
Format in all cases: biochemical
NDM-1 = NDM-1 (Klebsiella pneumoniae, UniProt C7C422)
IMP-28 = IMP-28 (Klebsiella oxytoca, UniProt G4WB26); settings: read-out: IMP-28 IC50; […] min pre-incubation, FC5 substrate, HEPES
VIM-2 = VIM-2 (Pseudomonas aeruginosa, UniProt Q9K2N0); settings: read-out: VIM-2 IC50; […] min pre-incubation, FC5 substrate, HEPES

Chain of NDM-1 (C7C422 29-270, looked up): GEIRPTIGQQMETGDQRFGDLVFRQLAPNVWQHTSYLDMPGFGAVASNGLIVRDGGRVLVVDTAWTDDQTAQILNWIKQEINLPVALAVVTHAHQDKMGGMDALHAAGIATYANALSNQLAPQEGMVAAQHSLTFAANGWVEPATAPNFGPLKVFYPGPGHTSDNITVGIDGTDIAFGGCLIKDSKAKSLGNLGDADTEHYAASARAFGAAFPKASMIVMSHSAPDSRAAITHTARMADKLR
Chain of IMP-28 (G4WB26 20-246): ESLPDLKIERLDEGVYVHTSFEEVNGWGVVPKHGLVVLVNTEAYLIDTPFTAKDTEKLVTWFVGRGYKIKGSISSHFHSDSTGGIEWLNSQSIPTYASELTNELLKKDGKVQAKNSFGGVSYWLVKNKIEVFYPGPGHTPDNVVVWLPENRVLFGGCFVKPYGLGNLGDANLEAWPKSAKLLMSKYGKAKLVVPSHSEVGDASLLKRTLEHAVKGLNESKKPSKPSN

IC50 (NDM-1) [µM]	IC50 (IMP-28) [µM]	IC50 (VIM-2) [µM]	Compound
	10.3 ± 0.22	3.64 ± 0.27	O=C(Cc1ccccc1)N[C@@H]1C(=O)N2C(C(=O)O)=C(CSc3cccc4cccnc34)CS[C@H]12 [compound 6]
2.18 ± 0.14	71.9 ± 3.05	6.35 ± 0.56	O=C(Cc1ccccc1)N[C@@H]1C(=O)N2C(C(=O)O)=C(CSc3cccc4cccnc34)C[S+]([O-])[C@H]12 (stereo partly shown) [compound 7]
8.47 ± 1.02	46.2 ± 3.13	4.17 ± 0.65	O=C(Cc1ccccc1)N[C@@H]1C(=O)N2C(C(=O)O)=C(CSc3cccc4cccnc34)CS(=O)(=O)[C@H]12 [compound 8]

The next lines start with the compound.

Compound	IC50 (NDM-1) [µM]	IC50 (IMP-28) [µM]	IC50 (VIM-2) [µM]
Sc1cccc2cccnc12 [8-TQ]	2.99 ± 0.58	4.2 ± 0.11	4.2 ± 1
O=C(O)c1cccc(C(=O)O)n1 [DPA]		9.65 ± 0.62	4.34 ± 0.67
O=C(Cc1ccccc1)N[C@@H]1C(=O)N2C(C(=O)O)=C(COC(=O)c3cccc(C(=O)O)n3)CS[C@H]12 [compound 13]	2.13 ± 0.07	7.39 ± 0.1	1.87 ± 0.1
O=C(Cc1ccccc1)N[C@@H]1C(=O)N2C(C(=O)O)=C(COC(=O)c3cccc(C(=O)O)n3)C[S+]([O-])[C@H]12 (stereo partly shown) [compound 14]	0.299 ± 0.005	46.7 ± 2.76	0.756 ± 0.056
O=C(Cc1ccccc1)N[C@@H]1C(=O)N2C(C(=O)O)=C(COC(=O)c3cccc(C(=O)O)n3)CS(=O)(=O)[C@H]12 [compound 15]	18.8 ± 1.22	61.9 ± 1.82	10.8 ± 0.6
